Q: Which solubility (mole fraction) (in acetone, 301 K) does the source give for `NNC(=O)c1ccncc1` here?
A: Its solubility (mole fraction) is 0.00946.

Q: What about the solubility (mole fraction) (in acetone, 303 K) of the same compound?
A: The solubility (mole fraction) was 0.0104.

Q: What about the solubility (mole fraction) (in acetone, 308 K) of the same compound?
A: The solubility (mole fraction) was 0.0136.

Q: And the solubility (mole fraction) (in acetone, 311 K)?
A: Its solubility (mole fraction) is 0.016.

Q: And the solubility (mole fraction) (in acetone, 313 K)?
A: Its solubility (mole fraction) is 0.0187.

Q: And the solubility (mole fraction) (in ethanol, 301 K)?
A: The solubility (mole fraction) was 0.00545.

Q: What about the solubility (mole fraction) (in ethanol, 303 K) of the same compound?
A: Its solubility (mole fraction) is 0.00579.

Q: What about the solubility (mole fraction) (in ethanol, 308 K) of the same compound?
A: The solubility (mole fraction) was 0.00717.

Q: And the solubility (mole fraction) (in ethanol, 311 K)?
A: Its solubility (mole fraction) is 0.00816.

Q: What about the solubility (mole fraction) (in ethanol, 313 K) of the same compound?
A: Its solubility (mole fraction) is 0.00887.

Q: What about the solubility (mole fraction) (in ethyl acetate, 301 K) of the same compound?
A: The solubility (mole fraction) was 0.00159.

Q: What about the solubility (mole fraction) (in ethyl acetate, 303 K) of the same compound?
A: The solubility (mole fraction) was 0.00172.

Q: What about the solubility (mole fraction) (in ethyl acetate, 308 K) of the same compound?
A: The solubility (mole fraction) was 0.00206.

Q: And the solubility (mole fraction) (in ethyl acetate, 311 K)?
A: The solubility (mole fraction) was 0.00225.

Q: And the solubility (mole fraction) (in ethyl acetate, 313 K)?
A: The solubility (mole fraction) was 0.00251.

Q: What about the solubility (mole fraction) (in methanol, 301 K) of the same compound?
A: Its solubility (mole fraction) is 0.0107.

Q: What about the solubility (mole fraction) (in methanol, 303 K) of the same compound?
A: The solubility (mole fraction) was 0.0114.

Q: What about the solubility (mole fraction) (in methanol, 308 K) of the same compound?
A: The solubility (mole fraction) was 0.0137.

Q: What about the solubility (mole fraction) (in methanol, 311 K) of the same compound?
A: Its solubility (mole fraction) is 0.0154.

Q: And the solubility (mole fraction) (in methanol, 313 K)?
A: The solubility (mole fraction) was 0.0163.

Reference: BigSolDB 2.1
